The source of these data is patent publication US6046182A, “Steroid carbamates as potentiating agents” (Satish BATRA, priority 1996, dated 2000).

One test has as its system AT-1. In words: Potentiation of daunorubicin (30 nM) in rat prostatic tumor cells AT-1 (cell survival, Coulter counter). Type of test: cell-based.
For the next test, the system named is HCT-15. The experiment in a line: Potentiation of daunorubicin (50 nM) in human colon tumor cells HCT-15 (cell survival, Coulter counter). The class given is cell-based. As to conditions: HCT-15, read-out: IC50, HCT-15 (concentration required to reduce cell survival by 50%).
In the next test the test system is HCT-15 cells. The experiment in a line: In vivo HCT-15 subcutaneous xenograft in SCID mice, doxorubicin alone or plus compound 1:1. More on the design: Significance (p) of difference in tumor growth between (1) vehicle and (2) doxorubicin, symbol * / Significance (p) of difference in tumor growth between (1) vehicle and (2) doxorubicin, symbol ***: dose or concentration left out as unconfirmed. As to conditions: days 9, 13, 17.

For test [1] the following is noted: cited from earlier work.
In another test the test system is tumors. As to conditions: animal models; cited from earlier work.
[2] abbreviates: with daunorubicin 30 nM, 24 h, then 96 h drug free, AT-1, read-out: IC50, AT-1 (concentration required to reduce cell survival by 50%).

Molecules are shown by their SMILES. Like-named read-outs stand apart in the source and are kept apart here. Bounds are passed on as bounds.

As to `CCCCN(CCCC)CCCNC(=O)OC1CC[C@@]2(C)C(=CC[C@H]3[C@@H]4CC[C@H](C(C)=O)[C@@]4(C)CC[C@@H]32)C1` (stereo partly shown) [1:4, pregn-5-ene-20-one-3-yl, N-(3-dibutylamino-propyl)-carbamate], in the test on AT-1 (setting [2]), the IC50 stood at 190 nM. On the same count and under the same terms, to `CCCCN(CCCC)CCCNC(=O)OC(C)[C@H]1CC[C@H]2[C@@H]3CCC4=CC(=O)CC[C@]4(C)[C@H]3CC[C@]12C` (stereo partly shown) [1:13, pregn-4-ene-3-one-20-yl, N-(3-dibutylamino-propyl)-carbamate] belongs 210 nM; to `CC(=O)[C@H]1CC[C@H]2[C@@H]3CCC4=CC(=O)CC[C@]4(C)[C@H]3C(OC(=O)N(Cc3ccccc3)Cc3ccccc3)C[C@]12C` (stereo partly shown) [1:35, pregn-4-ene-3,20-dione-11-yl, N,N-dibenzyl-carbamate], 150 nM. With `CCCCN(CCCC)C(=O)OC1C[C@]2(C)[C@@H](C(C)=O)CC[C@H]2[C@@H]2CCC3=CC(=O)CC[C@]3(C)[C@@H]12` (stereo partly shown) [Compound 1:1, pregn-4-ene-3,20-dione-11-yl, N,N-dibutylcarbamate], the IC50 is 510 nM in the test on HCT-15 (with daunorubicin 50 nM, 24 h, then 96 h drug free) and 760 nM in the test on AT-1 (setting [2]). Also, the “Potentiating effect in vivo” value in the test with HCT-15 cells (compound 1:1 400 mg/kg p.o. 2 hours before doxorubicin i.v.) is given as “potentiating effect”.

As to `COc1ccc(CCN(C)CCCC2(c3ccc4ccccc4c3)SCCCS2)cc1OC` [RO 11-2933], in test [1], the “In vivo activity in combination with doxorubicin” value is recorded as “in vivo activity”.

With `COc1cccc2c1C(=O)c1c(O)c3c(c(O)c1C2=O)C[C@@](O)(C(=O)CO)C[C@@H]3O[C@H]1C[C@H](N)[C@H](O)[C@H](C)O1` [doxorubicin], the “Significance (p) of difference in tumor growth between (1) vehicle and (2) doxorubicin, symbol *” value with HCT-15 cells (doxorubicin i.v., symbol *) is listed as less than 0.05. Also, the “Significance (p) of difference in tumor growth between (1) vehicle and (2) doxorubicin, symbol ***” value in the test on HCT-15 cells (doxorubicin i.v., symbol ***) was less than 0.005. As for `CC12CCC3c4ccc(OC(=O)N(CCCl)CCCl)cc4CCC3C1CCC2O` (stereo not shown) [estramustine], in the test with HCT-15, the IC50 is more than 2500 nM. In addition, in the test with tumors, the “Potentiation of radiation effects on tumors” value is recorded as “potentiate radiation effects on tumors”. As to `COc1ccc(CCN(C)CCCC(C#N)(c2ccc(OC)c(OC)c2)C(C)C)cc1OC` (stereo not shown) [verapamil], the IC50 is 500 nM in the test on HCT-15 and 740 nM with AT-1 (read-out: IC50, AT-1 (concentration required to reduce cell survival by 50%)).
